Experimental data reported in patent US20050186617A1, “Gene screening method using nuclear receptor” (Chugai Seiyaku Kabushiki Kaisha, a Japanese corporation, priority 1997, published 2005).

How the values were obtained:
1α (OH)-ase gene = test: Northern blot of CYP1AD (1α(OH)-ase) gene expression in mice given excess 1α,25(OH)2D3; format: in vivo; conditions: 50 ng/mouse
Excerpt: The tissue distribution of CYP1AD transcripts in 7-week-old normal and VDR−/− mice was examined. Poly(A)^+ RNA was extracted from brain, lung, heart, liver, spleen, kidney, small intestine, skeletal muscle, skin, and bone, and analyzed by northern blot technique using cDNA of CYP1AD and β-actin as probes (K. Takeyama et al., Biochem. Biophys. Res. Commun. 222, 395 (1996); H. Mano et al., J. Biol. Chem. 269, 1591 (1994)). As the result, the transcript of CYP1AD was detected as a single band in the kidney. The size of the transcript (2.4 kbp) is identical to that of cloned cDNA (FIG. 10). Except for kidney, in, 1α (OH)-ase activity has been reported in other tissues than kidney (A. W. Norman, J. Roth, L. Orchi, Endocr. Rev. 3, 331 (1982); H. F. DeLuca, Adv. Exp. Med. Biol. 196, 361 (1986); M. R. Walters, Endocr. Rev 13, 719 (1992); G. A. Howard, R. T. Turner, D. J. Sherrard, D. J. Baylink, J. Biol. Chem. 256, 7738 (1981); T. K. Gray, G. E. Lester, R. S. Lorenc, Science 204, 1311 (1979)). However, the transcript of 1α (OH)-ase was not detected in tissues other than kidney in this experiment.
The relative amount of the hydroxylase gene standardized with the β-actin gene transcripts was measured in at least 5 mice for each group (FIG. 12).

GAL4-VDR(DEF) = test: CAT reporter assay in COS-1 cells co-transformed with GAL4-VDR(DEF) and 17M2-G-CAT; format: cell-based

## C=C1/C(=C\C=C2/CCC[C@]3(C)[C@@H]([C@H](C)CCCC(C)(C)O)CC[C@@H]23)C[C@@H](O)C[C@@H]1O [1α,25(OH)2D3, 1α,25-Dihydroxyvitamin D3]
1α (OH)-ase gene; 3- and 7-week-old VDR−/− mice
  expression of the 1α (OH)-ase gene: the inhibition did not occurred
1α (OH)-ase gene; VDR+/+ and VDR+/− mice
  expression of the 1α (OH)-ase gene: significantly inhibited

## C=C1CC[C@H](O)C/C1=C/C=C1\CCC[C@]2(C)[C@@H]([C@H](C)CCCC(C)(C)O)CC[C@@H]12 [25(OH)D3, 25-hydroxyvitamin D3]
GAL4-VDR(DEF); CYP1AD expressed, with ADX and ADR expression vectors
  activation of the CAT reporter gene: activated the CAT reporter gene
GAL4-VDR(DEF); in the absence of ADX or ADR
  activation of the CAT reporter gene: did not significantly activate the reporter gene
